One test concerns the target T1, matriptase (Homo sapiens, UniProt Q9Y5Y6).
T1 construct: purchased R&D Systems
T1 sequence (Q9Y5Y6 1-855): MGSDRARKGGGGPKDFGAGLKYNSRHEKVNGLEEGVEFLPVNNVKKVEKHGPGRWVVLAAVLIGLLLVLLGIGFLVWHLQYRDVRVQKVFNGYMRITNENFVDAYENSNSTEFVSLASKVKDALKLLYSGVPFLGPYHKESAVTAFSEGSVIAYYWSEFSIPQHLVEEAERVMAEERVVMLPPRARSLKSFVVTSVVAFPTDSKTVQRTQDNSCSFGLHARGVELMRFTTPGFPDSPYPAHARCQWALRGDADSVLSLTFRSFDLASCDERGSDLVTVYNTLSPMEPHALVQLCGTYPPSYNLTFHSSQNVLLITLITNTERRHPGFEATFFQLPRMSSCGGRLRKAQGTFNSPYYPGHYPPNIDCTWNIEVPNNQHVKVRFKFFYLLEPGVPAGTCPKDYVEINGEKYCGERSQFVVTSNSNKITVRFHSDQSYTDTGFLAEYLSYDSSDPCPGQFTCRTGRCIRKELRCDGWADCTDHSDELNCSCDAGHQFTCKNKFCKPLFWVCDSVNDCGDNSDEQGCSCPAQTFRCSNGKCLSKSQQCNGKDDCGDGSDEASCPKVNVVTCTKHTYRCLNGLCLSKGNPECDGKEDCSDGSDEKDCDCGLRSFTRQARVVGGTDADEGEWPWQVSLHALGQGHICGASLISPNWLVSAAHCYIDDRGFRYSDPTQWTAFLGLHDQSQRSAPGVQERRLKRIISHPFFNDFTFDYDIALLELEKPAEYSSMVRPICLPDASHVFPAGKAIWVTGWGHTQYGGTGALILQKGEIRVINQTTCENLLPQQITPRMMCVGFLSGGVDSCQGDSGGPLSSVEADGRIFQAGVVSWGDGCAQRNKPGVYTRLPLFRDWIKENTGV
The test is described as follows: Fluorogenic protease activity assay, matriptase. It is filed as biochemical. The following applies: 10 μM inhibitor, Boc-Gln-Ala-Arg-NH2Mec 50 μM, N = 3. The source says: (§1) Recombinant human enzymes were sourced as follows: furin and matriptase (R&D Systems); prostasin (Sino Biological); trypsin and chymotrypsin (Sigma-Aldrich); factor Xa and neutrophil elastase (Merck Millipore) and proteinase-3 and cathepsin G (Elastin Products, Missouri). Fluorogenic substrates were sourced as follows: p-Glu-Arg-Thr-Lys-Arg-NH2Mec and Boc-Gln-Ala-Arg-NH2Mec (R&D Systems); Boc-Ile-Glu-Gly-Arg-NH2Mec (Bachem); Z-Gly-Gly-Arg-NH2Mec, MeOSuc-Ala-Ala-Pro-Val-NH2Mec and Suc-Ala-Ala-Pro-Phe-NH2Mec (Sigma-Aldrich). All chemicals and reagents for the synthesis of QUB-F1 were supplied by Sigma-Aldrich unless otherwise indicated. Fmoc-Lys(Boc)-SASRIN resin was sourced from Bachem. Fmoc-protected amino acids and HCTU were supplied by Merck Millipore.
(§2) Recombinant protease activities were assessed using the cognate fluorogenic substrates (final concentration 50 μM) as follows: trypsin (Z-Gly-Gly-Arg-NH2Mec), prostasin and matriptase (Boc-Gln-Ala-Arg-NH2Mec), factor Xa (Boc-Ile-Glu-Gly-Arg-NH2Mec), neutrophil elastase and proteinase 3 (MeO-Suc-Ala-Ala-Pro-Val-NH2Mec), chymotrypsin and cathepsin G (Suc-Ala-Ala-Pro-Phe-NH2Mec). The rate of substrate hydrolysis in the presence or absence of furin inhibitors was assessed by continuous recording at λex 360 nm, λem 480 nm, over a period of 60 minutes using a FLUOstar Optima microplate reader (BMG Labtech). […]

Another test addresses T2, cathepsin G (Homo sapiens, UniProt P08311).
T2 construct: purchased Elastin Products, Missouri
T2 sequence (P08311 21-255): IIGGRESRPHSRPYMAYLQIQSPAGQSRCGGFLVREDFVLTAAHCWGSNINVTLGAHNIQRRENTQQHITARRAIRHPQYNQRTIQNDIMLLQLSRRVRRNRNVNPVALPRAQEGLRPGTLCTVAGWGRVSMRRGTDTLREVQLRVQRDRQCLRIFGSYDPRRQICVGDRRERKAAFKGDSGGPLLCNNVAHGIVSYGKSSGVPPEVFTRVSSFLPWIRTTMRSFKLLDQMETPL
The test is described as follows: Fluorogenic protease activity assay, cathepsin G. Format: biochemical. The following applies: 10 μM inhibitor, Suc-Ala-Ala-Pro-Phe-NH2Mec 50 μM, N = 3.
From the text: as §1, §2

The next test has as its system CuFi-1 epithelial cells. The test is described as follows: PEA-induced epithelial cell toxicity (LDH cytotoxicity assay). Format: cell-based, human. The following applies: 2 μg/ml PEA, 24 h, CF airway epithelial cells. As for the experimental part: The CuFi-1 cell line was derived from human airway epithelium of a CF patient (F508del/F508del) transformed with a reverse transcriptase component of telomerase, hTERT and human papillomavirus type 16 E6 and E7 genes. Cells were grown as submerged cultures using bronchial epithelial growth medium (BEBM including a supplement pack) containing: epidermal growth factor, hydrocortisone, bovine pituitary extract, transferrin, bovine insulin, triiodothyronine, epinephrine, retinoic acid, penicillin-streptomycin (0.025 μg/ml), gentamycin ([…]) and amphotericin (25 μg/ml).
Cytotoxicity was determined using the LDH-Cytotoxicity Colorimetric Assay Kit II (Bio Vision) in accordance with the instructions provided by the manufacturer. Addition of the supplied cell lysis solution to control wells was used to determine 100% cytotoxicity in each set of experiments.
Fig 4 Effect of furin inhibitors on PEA-induced epithelial cell toxicity. (A) Cell toxicity (%) induced by 2 μg/ml PEA (24 h) was measured in the presence or absence of furin I or QUB-F1. Data represent mean ± s.e.m. *P<0.05. (B) Airway epithelial cell surface furin-like activity was assayed upon application of the furin fluorogenic substrate (pERTKR) to cell cultures in the presence or absence of 10 μM furin I or QUB-F1.

Side chains are listed from the residue outwards. Peptide text beside a SMILES is read from it. * marks the point of attachment. Biotin = O=C1N[C@H]2[C@H](CS[C@H]2CCCCC(=O)*)N1; X1 = N=C(N)NCCCC(N*)P(=O)(Oc1ccccc1)Oc1ccccc1; Palmitoyl = CCCCCCCCCCCCCCCC(=O)*; Ahx = NCCCCCC(=O)O

With `CCCCCCCCCCCCCCCC(=O)N[C@@H](CCCCNC(=O)CCCCCNC(=O)CCCC[C@@H]1SC[C@@H]2NC(=O)N[C@@H]21)C(=O)N[C@@H](CCCNC(=N)N)C(=O)N[C@H](C(=O)N[C@@H](CCCCN)C(=O)NC(CCCNC(=N)N)P(=O)(Oc1ccccc1)Oc1ccccc1)C(C)C` (stereo partly drawn) [QUB-F1, N^α-Pal-N^ω-(Biotinyl-Ahx)-Lys-RVKR^P(OPh)2] (Palmitoyl-K([Ahx-Biotin])RVK-X1), the inhibition of matriptase result against matriptase is on record as “did not”. For the same compound, on cathepsin G, the “inhibition of cathepsin G” value is “Neither compound was found to inhibit”. Besides, the “effect on PEA-induced epithelial cell toxicity” value in the test with CuFi-1 epithelial cells is reported as “offered no protection”.
